# According to patent publication US9310353B2, “Method for evaluating bioavailable zinc” (The Procter & Gamble Company, priority 2014, dated 2016):
# Marks after values point to notes of the source that are not given here.
# How the values were obtained:
# TR146 cells [1] = assay: Flux of Zn salts in TR146 cells (FLIPR, FluoZin-3 AM); type: cell-based; conditions: for % of Zn Lactate Flux: Zn-lactate = 100%
# Protocol: (§1) Measurement of Zn uptake into TR146 cells was done using a FLIPR (Fluorescent Imaging Plate Reader) assay. The assay was established using a cell membrane permeable version of Zn dye, FluoZin-3 AM (Life Technologies, Grand Island, N.Y.). TR146 cells were grown in 15 ml growth medium [high glucose DMEM (Dulbecco's Modification of Eagle's Medium) supplemented with 10% FBS (fetal bovine serum), 100 units/ml penicillin and 100 μg/ml streptomycin in a 75 cm^2 flask for 3 days at 37° C. in a mammalian cell culture incubator set at 5% CO2. Cells were detached with addition of 10 ml of PBS (phosphate buffered saline) and gentle hand shaking, and transferred to a 50 ml tube and centrifuged at 850 rpm for 3 minutes to remove PBS. After centrifugation, a pellet of cells was formed in the bottom of the tube separating them from the supernatant solution. The supernatant was discarded and the cell pellet suspended in 1 ml of fresh growth medium to which 5 μl (12.5 μg) of FluoZin-3 AM Zn indicator was added and incubated for 30 minutes with gentle shaking. FluoZin-3 AM is a fluorescent dye used for quantifying intracellular Zn concentrations in the 1 to 100 nM to range. At the end of the 30 minutes, 45 ml of assay buffer [1×HBSS (Hank's Balanced Salt Solution), 20 mM HEPES (4-(2-Hydroxyethyl)-1-piperazineethanesulfonic acid)] was added to wash the cells and the resulting combination was then centrifuged at 850 rpm for 3 minutes to remove excess buffer and FluoZin-3 AM Zn indicator. The pelleted cells were re-suspended in 10 ml assay buffer and 90 μl aliquots (˜50,000 cells) per well delivered to a 96-well assay plate and the plate is placed into a fluorometric imaging plate reader (FLIPR384 from Molecular Devices, Sunnyvale, Calif.) and basal fluorescence recorded (excitation wave length 494 nm and emission wave length 516 nm). Then Zn salt (for example Zn-lactate) was added and the increase in fluorescence was recorded for 5 minutes. Zn-flux observed with different Zn salts with Zn-lactate value as reference (100%) is shown below in TABLE 2.
# TR146 cells [2] = assay: Chelant effects on Zn flux via TR146 measurements (FLIPR); type: cell-based; conditions: relative to the flux of the Zn lactate control; for 50 micro M Chelant Control / 5 micro M Chelant Control: chelant alone, no Zn
# Source text: These combinations were then placed into growth media and measurement of Zn uptake into TR146 cells was done using a FLIPR (Fluorescent Imaging Plate Reader) assay, as described in EXAMPLE 2.
# TR146 cells [3] = assay: Competitive inhibition of Zn flux from zinc chloride by amine polymers in TR146 cells; type: cell-based; conditions: ZnCl2 140 uM alone (reference)
# Protocol: (§2) Measurement of Zn uptake into TR146 cells was done using a FLIPR (Fluorescent Imaging Plate Reader) assay. The assay was established using a cell membrane permeable version of Zn dye, FluoZin-3 AM (Life Technologies, Grand Island, N.Y.). TR146 cells were grown in 15 ml growth medium [high glucose DMEM (Dulbecco's Modification of Eagle's Medium) supplemented with 10% FBS (fetal bovine serum), 100 units/ml penicillin and 100 μg/ml streptomycin in a 75 cm^2 flask for 3 days at 37° C. in a mammalian cell culture incubator set at 5% CO2. Cells were detached with addition of 10 ml of PBS (phosphate buffered saline) and gentle hand shaking, and transferred to a 50 ml tube and centrifuged at 850 rpm for 3 minutes to remove PBS. […] FluoZin-3 AM is a fluorescent dye used for quantifying intracellular Zn concentrations in the 1 to 100 nM to range. […] The pelleted cells were re-suspended in 10 ml assay buffer and 90 μl aliquots (˜50,000 cells) per well delivered to a 96-well assay plate and the plate is placed into a fluorometric imaging plate reader (FLIPR384 from Molecular Devices, Sunnyvale, Calif.) and basal fluorescence recorded (excitation wave length 494 nm and emission wave length 516 nm). Then Zn salt (for example Zn-lactate) was added and the increase in fluorescence was recorded for 5 minutes. […]
# [4] = read-out: Affinity Kd (Zn^2+); cited from earlier work
# TR146 cells [5] = assay: Screening of Zn indicators by Zn uptake into TR146 cells (FLIPR); type: cell-based; conditions: Zn indicators screened using TR146 cells
# Protocol: As with most metal ions, the choice of indicator is dependent on the cell type, ion channel, and metal specificity.
# as §2, with “To screen the Zn indicators, measurement of” for “Measurement of”, “of Zn-indicator,” for “of Zn dye,”, “grown to confluency” for “grown”, “CO2.” for “CO2. Cells were detached with addition of 10 ml of PBS (phosphate buffered saline) and gentle hand shaking, and transferred to a 50 ml tube and centrifuged at 850 rpm for 3 minutes to remove PBS.”, “plate was” for “plate is”
# TR146 cells [6] = assay: Effects of cationic polymers and dentifrice binders on uptake of zinc lactate by TR146 cells; type: cell-based; conditions: 50 μM Zn Lactate alone (reference)
# Source text: After centrifugation, a pellet of cells was formed in the bottom of the tube separating them from the supernatant solution.
# TR146 cells [7] = assay: Bioavailability of Zn from formulated dentifrices and rinses, Zn uptake by TR146 cells (FLIPR); type: cell-based; conditions: 0.01% Dentifrices A-D tested on the TR146 cells; Zn Lactate Control = 100%
# Protocol: as §2
# TR146 cells [8] = assay: Polyquats blocking Zn uptake into TR146 cells (FLIPR); type: cell-based; conditions: Control Zn lactate
# Protocol: as §1, with “TABLE 2. […]” for “TABLE 2.”
# [9] = Zn salt concentration Saturated
smiles,measurement,setting,value
[O-2].[Zn+2] [ZnOxide],Fluorescence Unit,TR146 cells [1]; [9],50391.21
same,% of Zn Lactate Flux,TR146 cells [1]; [9],106.62%
O=P1([O-])OP(=O)([O-])OP(=O)([O-])OP(=O)([O-])OP(=O)([O-])OP(=O)([O-])O1.[Na+].[Na+].[Na+].[Na+].[Na+].[Na+] [Sodium Hexametaphosphate],50 micro M Chelant Control,TR146 cells [2],0.00%
same,"Zn flux, 5 micro M Chelant + 5 micro M Zn lactate",TR146 cells [2],105.02%
same,"Zn flux, 50 micro M Chelant + 50 micro M Zn lactate",TR146 cells [2],63.81%*
[Cl-].[Cl-].[Zn+2] [ZnCl2],Zn Flux as a percentage of the Zn Chloride Control,TR146 cells [3],100%
same,Fluorescence Unit,TR146 cells [1]; Zn salt concentration 1 mM,47853.41
same,% of Zn Lactate Flux,TR146 cells [1]; Zn salt concentration 1 mM,101.25%
O=P(O)(O)O[C@H]1[C@H](OP(=O)(O)O)[C@@H](OP(=O)(O)O)[C@H](OP(=O)(O)O)[C@@H](OP(=O)(O)O)[C@H]1OP(=O)(O)O [Phytic acid],5 micro M Chelant Control,TR146 cells [2],0.00%
same,50 micro M Chelant Control,TR146 cells [2],0.00%
same,"Zn flux, 5 micro M Chelant + 5 micro M Zn lactate",TR146 cells [2],20.07%
same,"Zn flux, 50 micro M Chelant + 50 micro M Zn lactate",TR146 cells [2],33.87%
NCC(=O)[O-].NCC(=O)[O-].[Zn+2] [ZnGlycinate],Fluorescence Unit,TR146 cells [1]; Zn salt concentration 4.40%,41086.61
same,% of Zn Lactate Flux,TR146 cells [1]; Zn salt concentration 4.40% (206 mM),86.93%
O=C([O-])CC(O)(CC(=O)[O-])C(=O)[O-].[Na+].[Na+].[Na+] [Sodium citrate],5 micro M Chelant Control,TR146 cells [2],0.00%
same,50 micro M Chelant Control,TR146 cells [2],0.00%
same,"Zn flux, 5 micro M Chelant + 5 micro M Zn lactate",TR146 cells [2],104.83%
same,"Zn flux, 50 micro M Chelant + 50 micro M Zn lactate",TR146 cells [2],43.63%
COc1ccc(N(CC(=O)O)CC(=O)O)c(OCCOc2cc(-c3c4cc(F)c(=O)cc-4oc4cc(O)c(F)cc34)ccc2NCC(=O)O)c1 [FluoZin-3],Kd,[4],15 nM
same,affinity for the flux of Zn into the TR146 cell line,TR146 cells [5],most affinity for the flux of Zn into the TR146 cell line
O=C([O-])[C@H](O)[C@@H](O)[C@H](O)[C@H](O)CO.[Na+] [Sodium D-gluconate],5 micro M Chelant Control,TR146 cells [2],1.51%
same,50 micro M Chelant Control,TR146 cells [2],0.00%
same,"Zn flux, 5 micro M Chelant + 5 micro M Zn lactate",TR146 cells [2],101.31%
same,"Zn flux, 50 micro M Chelant + 50 micro M Zn lactate",TR146 cells [2],112.99%
O=P([O-])([O-])[O-].O=P([O-])([O-])[O-].[Zn+2].[Zn+2].[Zn+2] [ZnPhosphate],Fluorescence Unit,TR146 cells [1]; [9],49686.65
same,% of Zn Lactate Flux,TR146 cells [1]; [9],105.13%
[O-][n+]1ccccc1[S-].[O-][n+]1ccccc1[S-].[Zn+2] [ZnPyrithione],Fluorescence Unit,TR146 cells [1]; Zn salt concentration 10 mM,50467.87
same,% of Zn Lactate Flux,TR146 cells [1]; Zn salt concentration 10 mM,106.78%
O=P(O)(O)OP(=O)(O)OP(=O)(O)O [Sodium tripolyphosphate],5 micro M Chelant Control,TR146 cells [2],0.00%
same,50 micro M Chelant Control,TR146 cells [2],0.00%
same,"Zn flux, 5 micro M Chelant + 5 micro M Zn lactate",TR146 cells [2],92.99%
same,"Zn flux, 50 micro M Chelant + 50 micro M Zn lactate",TR146 cells [2],0.00%
same,"Zn flux, 50 micro M Chelant + 50 micro M Zn lactate",TR146 cells [2]; listed as sodium tripolyphosphate,did not allow for any measureable levels of Zn to be detected
O=C([O-])C(=O)[O-].[Zn+2] [ZnOxalate],Fluorescence Unit,TR146 cells [1]; [9],55389.93
same,% of Zn Lactate Flux,TR146 cells [1]; [9],117.2%
O=P([O-])(O)OP(=O)([O-])O.[Na+].[Na+] [Sodium acid pyrophosphate],5 micro M Chelant Control,TR146 cells [2],0.00%
same,50 micro M Chelant Control,TR146 cells [2],0.00%
same,"Zn flux, 5 micro M Chelant + 5 micro M Zn lactate",TR146 cells [2],82.87%
same,"Zn flux, 50 micro M Chelant + 50 micro M Zn lactate",TR146 cells [2],0.00%
same,"Zn flux, 50 micro M Chelant + 50 micro M Zn lactate",TR146 cells [2]; listed as sodium acid pyrophosphate,did not allow for any measureable levels of Zn to be detected
CC(O)C(=O)[O-].CC(O)C(=O)[O-].[Zn+2] (centres unmarked) [Zn Lactate],Fluorescence Units (percentage of zinc lactate),TR146 cells [6],100%
same,% of Zn Lactate Control (% Zn uptake by TR146 cells),TR146 cells [7],100%
same,"Zn flux, Zn Only","TR146 cells [2]; No chelant, 50 micro M Zn Lactate",100%*
same,Fluorescent Counts with no Zn,TR146 cells [8]; no quat,24.5
same,Fluorescent counts with Zn,TR146 cells [8]; no quat,1774.8
same,% Reduction compared to Zn control,TR146 cells [8]; no quat (reference),0%
CC(=O)[O-].CC(=O)[O-].[Zn+2] [ZnAcetate],Fluorescence Unit,TR146 cells [1]; Zn salt concentration 10 uM,48547.79
same,% of Zn Lactate Flux,TR146 cells [1]; Zn salt concentration 10 uM,102.72%
O=S(=O)([O-])[O-].[Zn+2] [ZnSO4],Fluorescence Unit,TR146 cells [1]; Zn salt concentration 1 mM,47853.41
same,% of Zn Lactate Flux,TR146 cells [1]; Zn salt concentration 1 mM,101.25%
